Results reported in paper PMC6331977, “Bioassay-Guided Isolation and Identification of Xanthine Oxidase Inhibitory Constituents from the Leaves of Perilla frutescens” (Molecules, 2015).

How the values were obtained:
[1] = biological target: T1, xanthine oxidase (XO) (Bos taurus, UniProt P80457); test: Assay of XO inhibitory modes of action (enzyme kinetics, Lineweaver-Burk plots); details: for Mode of Inhibition: Lineweaver-Burk plots
[2] = biological target: T1, xanthine oxidase (XO); test: Assay of XO activity (uric acid formation determined by HPLC); type: biochemical; set-up: purchased Sigma-Aldrich Chemicals (St. Louis, MO, USA); details: for XO inhibitory activity (in words): in vitro; for IC50: xanthine as substrate, 25 °C, pH 7.5, uric acid by HPLC

T1 sequence (P80457 whole entry): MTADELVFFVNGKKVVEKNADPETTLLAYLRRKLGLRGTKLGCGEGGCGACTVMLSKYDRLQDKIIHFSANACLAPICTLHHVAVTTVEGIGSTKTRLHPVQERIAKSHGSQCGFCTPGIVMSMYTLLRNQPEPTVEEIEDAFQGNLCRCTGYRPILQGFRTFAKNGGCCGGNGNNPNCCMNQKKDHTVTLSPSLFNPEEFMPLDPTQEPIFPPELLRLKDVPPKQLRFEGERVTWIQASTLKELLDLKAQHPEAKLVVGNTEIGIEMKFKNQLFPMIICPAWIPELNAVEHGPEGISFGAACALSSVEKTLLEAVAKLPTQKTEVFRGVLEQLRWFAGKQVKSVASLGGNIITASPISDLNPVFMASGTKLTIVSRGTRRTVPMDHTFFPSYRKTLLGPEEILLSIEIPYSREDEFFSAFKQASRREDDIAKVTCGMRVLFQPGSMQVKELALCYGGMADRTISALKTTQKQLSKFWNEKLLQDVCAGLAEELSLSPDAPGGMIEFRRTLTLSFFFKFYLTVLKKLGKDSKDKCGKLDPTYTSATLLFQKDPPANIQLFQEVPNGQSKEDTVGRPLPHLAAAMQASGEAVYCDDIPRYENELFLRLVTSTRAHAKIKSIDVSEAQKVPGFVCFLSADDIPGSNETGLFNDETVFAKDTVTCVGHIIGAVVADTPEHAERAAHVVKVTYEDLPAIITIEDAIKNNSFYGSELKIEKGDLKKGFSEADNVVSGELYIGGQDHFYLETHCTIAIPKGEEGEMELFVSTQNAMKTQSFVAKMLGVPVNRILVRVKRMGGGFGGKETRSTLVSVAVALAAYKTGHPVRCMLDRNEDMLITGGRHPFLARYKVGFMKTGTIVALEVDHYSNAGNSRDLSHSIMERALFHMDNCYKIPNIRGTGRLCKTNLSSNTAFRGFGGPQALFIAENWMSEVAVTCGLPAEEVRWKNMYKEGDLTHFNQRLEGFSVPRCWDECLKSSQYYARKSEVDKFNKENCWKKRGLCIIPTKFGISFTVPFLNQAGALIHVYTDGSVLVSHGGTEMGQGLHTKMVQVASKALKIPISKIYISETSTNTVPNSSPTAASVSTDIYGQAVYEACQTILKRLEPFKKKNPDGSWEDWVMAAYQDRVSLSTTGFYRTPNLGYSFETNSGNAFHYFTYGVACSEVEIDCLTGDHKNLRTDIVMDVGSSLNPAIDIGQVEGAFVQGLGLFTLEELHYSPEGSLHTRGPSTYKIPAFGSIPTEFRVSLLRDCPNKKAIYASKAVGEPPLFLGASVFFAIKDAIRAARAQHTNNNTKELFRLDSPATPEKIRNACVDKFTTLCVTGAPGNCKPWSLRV

Compound | Ki [1] | Mode of Inhibition [1] | IC50 [2] | Mode of Inhibition ([1]; listed as apigenin) | XO inhibitory activity (in words) [2] | Mode of Inhibition ([1]; listed as allopurinol)
COC(=O)[C@@H](Cc1ccc(O)c(O)c1)OC(=O)/C=C/c1ccc(O)c(O)c1 [Methyl rosmarinate, methyl rosmarinate] | 2.85 µM | Competitive | 26.6 µM |  | could significantly inhibit the production of uric acid | 
Oc1ncnc2[nH]ncc12 [Allopurinol, reference compound] |  | Competitive |  |  |  | competitive inhibitions
O=c1cc(-c2ccc(O)cc2)oc2cc(O)cc(O)c12 [Apigenin, apigenin] | 0.11 µM | Mixed | 0.44 µM | mixed inhibition mode | could significantly inhibit the production of uric acid | 

Continued by falling Ki [1], values first:

Ki [1] | Mode of Inhibition [1] | IC50 [2] | Mode of Inhibition ([1]; listed as apigenin) | Compound | XO inhibitory activity (in words) [2] | Mode of Inhibition ([1]; listed as allopurinol)
26.2 µM | Competitive | 91.7 µM |  | O=C(/C=C/c1ccc(O)c(O)c1)O[C@H](Cc1ccc(O)c(O)c1)C(=O)O [Rosmarinic acid, rosmarinic acid] | weak XO inhibitory activities | 
9.22 µM |  | 121 µM |  | O=C(O)/C=C/c1ccc(O)c(O)c1 [Caffeic acid, caffeic acid] |  | 
5.05 µM | Competitive | 31.3 µM |  | C=COC(=O)/C=C/c1ccc(O)c(O)c1 [Vinyl caffeate, vinyl caffeate] | could significantly inhibit the production of uric acid | 
